In brackets after ≈: the same amount, converted by molar mass.
Experiments:
Test in all cases: ≥ marks a high value that may be exact or a test limit, other limits are often not marked, values filed in µg/mL are converted to µM
Escherichia coli BL21 = test system: Escherichia coli BL21
[1] = test system: Pseudomonas aeruginosa PAO1
[2] = test system: Streptococcus pyogenes M1T1 5448
[3] = test system: Escherichia coli NCTC 10418
[4] = test system: Staphylococcus aureus NCTC 12981
[5] = test system: Bacillus licheniformis X39
[6] = test system: Psychrobacter faecalis X29
[7] = test system: Rhodococcus rhodochrous X15
[8] = test system: Staphylococcus aureus ATCC 2592
[9] = test system: Staphylococcus carnosus KHS
[10] = test system: Candida albicans ATCC 2002
[11] = test system: Candida albicans ATCC 90028
[12] = test system: Escherichia coli ATCC 25922
[13] = test system: Escherichia coli CIB 84492
[14] = test system: Pseudomonas aeruginosa CMCCB 10104
[15] = test system: Staphylococcus aureus ATCC 25923
[16] = test system: Staphylococcus aureus CIB 85462
[17] = test system: Staphylococcus aureus NCTC 8325
[18] = test system: Bacillus subtilis ATCC 6633
[19] = test system: Candida albicans ATCC 36232
[20] = test system: Corynebacterium diphtheriae ATCC 8024
[21] = test system: Escherichia coli ATCC 2592
[22] = test system: Micrococcus luteus ATCC 9341
[23] = test system: Pseudomonas aeruginosa ATCC 9027
[24] = test system: Shigella flexneri ATCC 203
[25] = test system: Staphylococcus aureus ATCC 6538
Staphylococcus aureus = test system: Staphylococcus aureus
[26] = test system: Staphylococcus epidermidis ATCC 12228
Escherichia coli = test system: Escherichia coli
Listeria innocua = test system: Listeria innocua
Micrococcus luteus A270 = test system: Micrococcus luteus A270
[27] = test system: Salmonella enterica subsp. enterica serovar Enteritidis
[28] = test system: Pseudomonas aeruginosa H1001

CC[C@H](C)[C@H](NC(=O)[C@H](CCC(=O)O)NC(=O)[C@H](CCCN=C(N)N)NC(=O)[C@H](CCCN=C(N)N)NC(=O)[C@H](CC(C)C)NC(=O)[C@H](Cc1ccc(O)cc1)NC(=O)[C@H](CCCCN)NC(=O)[C@H](C)NC(=O)[C@@H](NC(=O)[C@@H](NC(=O)[C@H](CCC(N)=O)NC(=O)[C@H](CCCN=C(N)N)NC(=O)[C@H](Cc1c[nH]c2ccccc12)NC(=O)[C@H](C)N)[C@@H](C)O)[C@@H](C)CC)C(=O)N[C@@H](CCCN=C(N)N)C(=O)N[C@@H](CCCCN)C(=O)N[C@@H](CCCN=C(N)N)C(=O)NCC(=O)N[C@@H](CCCN=C(N)N)C(=O)N[C@@H](CCCCN)C(=O)N[C@@H](C)C(=O)N[C@H](C(=O)N[C@H](C(=O)N[C@@H](C)C(=O)N[C@@H](Cc1c[nH]c2ccccc12)C(=O)O)[C@@H](C)CC)C(C)C [AWRQTIAKYLRREIRKRGRKAVIAW]
MIC (Escherichia coli BL21): 1 µM (≈ 3.13 µg/mL)
MIC [1]: 4 µM (≈ 12.5 µg/mL)
MIC [2]: 4 µM (≈ 12.5 µg/mL)

NC(=O)[C@H](Cc1ccccc1)NC(=O)[C@H](CCCN=C(N)N)NC(=O)[C@H](Cc1ccccc1)NC(=O)[C@H](CCCN=C(N)N)NC(=O)[C@@H](N)Cc1ccccc1 [FRFRF]
MIC [3]: ≥ 166 µM
MIC [4]: ≥ 166 µM

CC[C@H](C)[C@H](NC(=O)CN)C(=O)N[C@@H](Cc1ccccc1)C(=O)N[C@@H](CO)C(=O)N[C@@H](CC(C)C)C(=O)N[C@@H](Cc1ccccc1)C(=O)N[C@@H](CCCCN)C(=O)N[C@@H](C)C(=O)NCC(=O)N[C@@H](C)C(=O)N[C@@H](CCCCN)C(=O)N[C@@H](Cc1ccccc1)C(=O)N[C@@H](Cc1ccccc1)C(=O)NCC(=O)N[C@@H](CCCCN)C(=O)N[C@@H](Cc1cnc[nH]1)C(=O)N[C@@H](CC(C)C)C(=O)N[C@@H](CC(C)C)C(=O)N[C@@H](CCCCN)C(=O)N[C@@H](CCC(N)=O)C(=O)N[C@@H](C)C(=O)NCC(=O)N[C@@H](CCCCN)C(=O)N[C@@H](C)C(=O)NCC(=O)N[C@@H](C)C(=O)N[C@@H](CCC(=O)O)C(=O)N[C@@H](Cc1cnc[nH]1)C(=O)N[C@@H](CC(C)C)C(=O)N[C@@H](C)C(=O)N[C@H]1CSSC[C@@H](C(=O)O)NC(=O)[C@H](CCC(N)=O)NC(=O)[C@H](CC(N)=O)NC(=O)[C@H]([C@@H](C)O)NC(=O)[C@H](C)NC(=O)[C@H](CCCCN)NC1=O [GIFSLFKAGAKFFGKHLLKQAGKAGAEHLACKATNQC]
MIC [5]: 3.2 µM (≈ 12.4 µg/mL)
MIC [6]: 1.6 µM (≈ 6.22 µg/mL)
MIC [7]: 0.8 µM (≈ 3.11 µg/mL)
MIC [8]: 1.6 µM (≈ 6.22 µg/mL)
MIC [9]: 3.2 µM (≈ 12.4 µg/mL)

CC[C@H](C)[C@H](NC(=O)[C@H](CC(C)C)NC(=O)[C@H](CCCCN)NC(=O)[C@H](C)NC(=O)[C@H](C)NC(=O)CNC(=O)[C@H](CCCCN)NC(=O)[C@@H](NC(=O)[C@H](CC(C)C)NC(=O)[C@@H](NC(=O)[C@H](Cc1ccccc1)NC(=O)[C@H](CC(C)C)NC(=O)CN)[C@@H](C)O)[C@@H](C)CC)C(=O)NCC(=O)N[C@@H](CCCCN)C(=O)N[C@H](C(=O)N[C@H](C(=O)N[C@@H](C)C(=O)N[C@@H](CCCCN)C(=O)N[C@@H](CCC(=O)O)C(=O)N[C@@H](C)C(=O)NCC(=O)N[C@@H](CCCCN)C(=O)N[C@H](C(=O)NCC(=O)N[C@@H](CC(C)C)C(=O)N[C@@H](CCC(=O)O)C(=O)N[C@@H](CC(C)C)C(=O)N[C@@H](CCSC)C(=O)N[C@@H](C)C(=O)N[C@H]1CSSC[C@@H](C(=O)O)NC(=O)[C@H](CCC(N)=O)NC(=O)[C@H](CC(N)=O)NC(=O)[C@H]([C@@H](C)O)NC(=O)[C@H]([C@@H](C)CC)NC(=O)[C@H](CCCCN)NC1=O)[C@@H](C)O)C(C)C)[C@@H](C)O [GLFTLIKGAAKLIGKTVAKEAGKTGLELMACKITNQC]
MIC [10]: 1.33 µM (≈ 5.1 µg/mL)
MIC [11]: ≥ 100 µM
MIC [12]: 2.67 µM (≈ 10.2 µg/mL)
MIC [13]: ≥ 33.5 µM
MIC [14]: 2.67 µM (≈ 10.2 µg/mL)
MIC [15]: 1.33 µM (≈ 5.1 µg/mL)
MIC [16]: 8.37 µM (≈ 32 µg/mL)
MIC [17]: ≥ 50 µM

CC(C)C[C@H](NC(=O)[C@H](CS)NC(=O)[C@H](Cc1cnc[nH]1)NC(=O)[C@H](C)NC(=O)[C@H](C)NC(=O)[C@H](CS)NC(=O)[C@H](C)NC(=O)[C@H](C)NC(=O)[C@H](CC(=O)O)NC(=O)[C@@H](N)CC(N)=O)C(=O)N[C@@H](Cc1ccccc1)C(=O)N[C@@H](CCCN=C(N)N)C(=O)NCC(=O)N[C@@H](CCCN=C(N)N)C(=O)N[C@@H](CO)C(=O)NCC(=O)NCC(N)=O [NDAACAAHCLFRGRSGG]
MIC [18]: ≥ 58.6 µM
MIC [19]: ≥ 58.6 µM
MIC [20]: ≥ 58.6 µM
MIC [21]: ≥ 58.6 µM
MIC [22]: ≥ 58.6 µM
MIC [23]: > 58.6 µM
MIC [24]: ≥ 58.6 µM
MIC [25]: > 58.6 µM
MIC (Staphylococcus aureus): > 58.6 µM
MIC [26]: > 58.6 µM

C[C@@H](O)[C@H](NC(=O)[C@H](CCCCN)NC(=O)[C@@H](NC(=O)[C@@H](NC(=O)[C@@H]1CCCN1)[C@@H](C)O)[C@@H](C)O)C(=O)N[C@@H](Cc1ccc(O)cc1)C(=O)N[C@@H](Cc1ccccc1)C(=O)N1CCC[C@H]1C(=O)N[C@@H](Cc1cnc[nH]1)C(=O)N[C@@H](Cc1ccccc1)C(=O)O [PTTKTYFPHF]
MIC (Escherichia coli): 9 µM (≈ 11.1 µg/mL)
MIC (Listeria innocua): 1 µM (≈ 1.24 µg/mL)
MIC (Micrococcus luteus A270): 1 µM (≈ 1.24 µg/mL)
MIC [27]: 9 µM (≈ 11.1 µg/mL)

NC(=O)[C@H](CCCN=C(N)N)NC(=O)[C@H](CCCN=C(N)N)NC(=O)[C@H](Cc1c[nH]c2ccccc12)NC(=O)[C@@H]1CCCN1C(=O)[C@H](Cc1c[nH]c2ccccc12)NC(=O)[C@H](Cc1c[nH]c2ccccc12)NC(=O)[C@@H]1CCCN1 [PWWPWRR]
MIC [22]: 3.1 µM (≈ 3.36 µg/mL)
MIC [28]: ≥ 231 µM

CC(C)C[C@H](NC(=O)[C@H](CCCN=C(N)N)NC(=O)[C@@H]1CCCN1C(=O)[C@H](CCCN=C(N)N)NC(=O)[C@H](CCCN=C(N)N)NC(=O)[C@@H]1CCCN1C(=O)[C@@H](N)CCCN=C(N)N)C(=O)N1CCC[C@H]1C(=O)N[C@@H](Cc1c[nH]c2ccccc12)C(N)=O [RPRRPRLPW]
MIC [3]: ≥ 104 µM
MIC [4]: ≥ 104 µM

CC[C@H](C)[C@H](NC(=O)[C@H](CCCN=C(N)N)NC(=O)[C@H](Cc1ccc(O)cc1)NC(=O)[C@H](Cc1c[nH]c2ccccc12)NC(=O)[C@H](CCCN=C(N)N)NC(=O)[C@@H](NC(=O)[C@@H](N)CCCN=C(N)N)C(C)C)C(=O)N[C@@H](Cc1ccccc1)C(=O)N[C@@H](Cc1ccc(O)cc1)C(N)=O [RVRWYRIFY]
MIC [28]: 1.47 µM (≈ 2 µg/mL)

CC(C)[C@H](NC(=O)[C@H](CS)NC(=O)[C@@H](NC(=O)[C@H](CCCN=C(N)N)NC(=O)[C@H](CCCCN)NC(=O)CNC(=O)[C@H](CC(N)=O)NC(=O)[C@H](CS)NC(=O)[C@@H](N)Cc1ccc(O)cc1)C(C)C)C(=O)N[C@@H](CS)C(N)=O [YCNGKRVCVC]
MIC [18]: ≥ 87.4 µM
MIC [19]: ≥ 87.4 µM
MIC [20]: ≥ 87.4 µM
MIC [21]: ≥ 87.4 µM
MIC [22]: ≥ 87.4 µM
MIC [23]: > 87.4 µM
MIC [24]: ≥ 87.4 µM
MIC [25]: > 87.4 µM
MIC (Staphylococcus aureus): > 87.4 µM
MIC [26]: > 87.4 µM
